25 compounds from patent US11584734B2, “Tricyclic compounds as histone methyltransferase inhibitors” (GLOBAL BLOOD THERAPEUTICS, INC., priority 2017, dated 2023) can be followed below.

This assay has as its target T1, G9a (Homo sapiens, UniProt Q96KQ7).
T1 sequence (Q96KQ7 1-1210): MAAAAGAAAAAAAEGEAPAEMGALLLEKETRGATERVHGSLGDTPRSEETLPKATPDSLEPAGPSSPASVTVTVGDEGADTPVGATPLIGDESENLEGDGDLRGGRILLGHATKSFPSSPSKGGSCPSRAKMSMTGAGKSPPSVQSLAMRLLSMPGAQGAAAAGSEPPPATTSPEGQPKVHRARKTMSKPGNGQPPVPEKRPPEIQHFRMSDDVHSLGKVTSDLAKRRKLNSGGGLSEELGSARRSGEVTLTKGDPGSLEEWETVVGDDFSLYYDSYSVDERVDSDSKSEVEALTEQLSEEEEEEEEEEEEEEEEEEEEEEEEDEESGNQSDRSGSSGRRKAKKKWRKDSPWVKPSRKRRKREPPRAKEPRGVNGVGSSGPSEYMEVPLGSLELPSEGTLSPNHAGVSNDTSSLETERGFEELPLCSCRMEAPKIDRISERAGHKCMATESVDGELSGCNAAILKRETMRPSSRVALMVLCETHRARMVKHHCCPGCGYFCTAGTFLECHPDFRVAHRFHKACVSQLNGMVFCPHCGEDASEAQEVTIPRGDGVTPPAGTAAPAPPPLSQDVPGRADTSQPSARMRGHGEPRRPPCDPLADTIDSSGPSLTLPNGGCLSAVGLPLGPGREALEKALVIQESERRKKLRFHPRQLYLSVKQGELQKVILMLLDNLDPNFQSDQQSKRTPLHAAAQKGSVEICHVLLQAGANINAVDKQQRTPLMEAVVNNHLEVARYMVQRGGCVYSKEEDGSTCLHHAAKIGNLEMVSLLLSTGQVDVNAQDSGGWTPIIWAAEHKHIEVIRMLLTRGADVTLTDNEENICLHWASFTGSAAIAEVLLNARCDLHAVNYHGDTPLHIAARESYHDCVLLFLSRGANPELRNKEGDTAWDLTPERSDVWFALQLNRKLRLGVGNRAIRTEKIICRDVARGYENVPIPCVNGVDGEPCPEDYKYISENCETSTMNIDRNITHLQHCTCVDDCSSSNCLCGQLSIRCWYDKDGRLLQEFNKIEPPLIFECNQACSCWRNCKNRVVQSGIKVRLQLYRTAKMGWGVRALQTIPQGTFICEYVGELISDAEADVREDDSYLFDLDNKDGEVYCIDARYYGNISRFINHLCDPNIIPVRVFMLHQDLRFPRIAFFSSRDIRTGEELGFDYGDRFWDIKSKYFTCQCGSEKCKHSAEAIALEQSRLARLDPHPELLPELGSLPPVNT
Briefly: G9a AlphaLISA enzymatic activity assay. Format: biochemical. The conditions noted are these: negative log of IC50 in molar, 0.15 nM G9a, 15 uM S-adenosyl-methionine, 100 nM biotinylated histone 3 peptide (1-21). An excerpt:
The G9a AlphaLISA assay was used to detect the methyl modifications of a biotinylated histone H3 peptide by the compounds. These modifications are done by the histone methyl transferase activity of the G9a enzyme. The assay consists of reading a chemiluminescent signal at 615 nm; this signal is generated by a laser excitation at 680 nm that transfers a reactive singlet oxygen between the donor beads and acceptor beads. Donor beads are streptavidin conjugated and bind to the biotin on the peptide. Acceptor beads are conjugated with an antibody that recognizes the specific G9a methyl mark on the peptide. If there is a methyl mark on the peptide, the acceptor beads will bind to the peptide. Upon binding, the acceptor beads will be in close proximity (<200 nm) of the donor beads and when the donor beads are excited, the transfer of the oxygen can occur and a strong signal will be generated. If there is no methyl mark, the interaction between beads will not occur and signal will be at background levels.
For the assay, the following buffer was used to set up reactions: 50 mM Tris-HCl pH9, 50 mM NaCl, 0.01% Tween-20 and 1 mM DTT (added fresh prior to starting the reactions). […] The reaction is incubated at rt for 1 hour and subsequently quenched by the addition of the acceptor beads (anti-H3k9me2 AlphaLISA acceptor beads, PerkinElmer #AL117) at a final concentration of 20 ug/mL. The acceptor beads are incubated for 1 hour. After 1 hour, the donor beads are added at a final concentration of 20 ug/mL (Alpha Streptavidin donor beads, PerkinElmer #6760002). Donor beads are incubated for 0.5 hours. Both donor and acceptor beads are resuspended in AlphaLISA 5X Epigenetics Buffer 1 Kit (PerkinElmer #AL008) prior to addition to the reaction. All manipulations and incubations with the donor and acceptor beads are done in subdued light. Signal is detected in an EnVision plate reader in Alpha mode. See ACS Med Chem Lett. 2014; 5(2):205-9.
Percent inhibition was calculated for each compound dilution and the concentration that produced 50% inhibition was calculated. This value is presented as the pIC50, which is the negative log of the IC50 value in molar.

Each structure is given as a SMILES string. Where a name gives a salt, the structure may show the parent alone.

Regarding `Oc1cc2c(NCC3CC3)c3c(nc2cc1OCCCN1CCCC1)CCC3` [Example 2, dihydrochloride], the 50% inhibitory concentration (IC50) (in general, the point on the concentration scale where inhibition reaches its midpoint) was 0.158 µM.

Take `COC[C@H](C)Nc1c2c(nc3cc(OCCCN4CCCC4)c(OC)cc13)CCC2` [Example 4]: the IC50 is 0.00617 µM.

In turn, `CCNc1c2c(nc3cc(OCCCN4CCCC4)c(OC)cc13)CC(C)(C)C2` [Example 6, N-ethyl-7-methoxy-2,2-dimethyl-6-[3-(pyrrolidin-1-yl)propoxy]-1H,2H,3H-cyclopenta[b]quinolin-9-amine] had a half-inhibitory concentration (IC50) of 0.038 µM.

With `COc1cc2c(NC(C)C)c3c(nc2cc1OCCCN1CCCC1)CC(C)(C)C3` [Example 7, 7-methoxy-2,2-dimethyl-N-(propan-2-yl)-6-[3-(pyrrolidin-1-yl)propoxy]-1H,2H,3H-cyclopenta[b]quinolin-9-amine], the IC50 is 0.0309 µM.

For `COCCNc1c2c(nc3cc(OCCCN4CCCC4)c(OC)cc13)CC(C)(C)C2` [Example 8, 7-methoxy-N-(2-methoxyethyl)-2,2-dimethyl-6-[3-(pyrrolidin-1-yl)propoxy]-1H,2H,3H-cyclopenta[b]quinolin-9-amine], the IC50 was 0.0513 µM.

As for `COc1cc2c(NCc3ccn[nH]3)c3c(nc2cc1OCCCN1CCCC1)CCC3` [Example 9, 7-methoxy-N-[(1H-pyrazol-5-yl)methyl]-6-[3-(pyrrolidin-1-yl)propoxy]-1H,2H,3H-cyclopenta[b]quinolin-9-amine], the IC50 was 0.012 µM.

In turn, `CCOCCNc1c2c(nc3cc(OCCCN4CCCC4)c(OC)cc13)CCC2` [Example 10, N-(2-ethoxyethyl)-7-methoxy-6-[3-(pyrrolidin-1-yl)propoxy]-1H,2H,3H-cyclopenta[b]quinolin-9-amine] showed a half-inhibitory concentration (IC50) of 0.00631 µM.

`CCOCCCNc1c2c(nc3cc(OCCCN4CCCC4)c(OC)cc13)CCC2` [Example 11, N-(3-ethoxypropyl)-7-methoxy-6-[3-(pyrrolidin-1-yl)propoxy]-1H,2H,3H-cyclopenta[b]quinolin-9-amine] gave a half-maximal inhibitory concentration (IC50) of 0.0174 µM.

`CCCOCCCNc1c2c(nc3cc(OCCCN4CCCC4)c(OC)cc13)CCC2` [Example 12, 7-methoxy-N-(3-propoxypropyl)-6-[3-(pyrrolidin-1-yl)propoxy]-1H,2H,3H-cyclopenta[b]quinolin-9-amine] had a concentration for half-maximal inhibition (IC50) of 0.00832 µM.

`COc1cc2c(NCCOC(C)C)c3c(nc2cc1OCCCN1CCCC1)CCC3` [Example 13, 7-methoxy-N-[2-(propan-2-yloxy)ethyl]-6-[3-(pyrrolidin-1-yl)propoxy]-1H,2H,3H-cyclopenta[b]quinolin-9-amine] showed a half-maximal inhibitory concentration (IC50) of 0.0316 µM.

`COc1cc2c(NC[C@@H](C)OC)c3c(nc2cc1OCCCN1CCCC1)CCC3` [Example 14, 7-methoxy-N-[(2R)-2-methoxypropyl]-6-[3-(pyrrolidin-1-yl)propoxy]-1H,2H,3H-cyclopenta[b]quinolin-9-amine] had a concentration for half-maximal inhibition (IC50) of 0.0263 µM.

`COc1cc2c(NC[C@H](C)OC)c3c(nc2cc1OCCCN1CCCC1)CCC3` [Example 15, 7-methoxy-N-[(2S)-2-methoxypropyl]-6-[3-(pyrrolidin-1-yl)propoxy]-1H,2H,3H-cyclopenta[b]quinolin-9-amine] gave an IC50 of 0.0224 µM.

For the compound `CCCOCCNc1c2c(nc3cc(OCCCN4CCCC4)c(OC)cc13)CCC2` [Example 16, 7-methoxy-N-(2-propoxyethyl)-6-[3-(pyrrolidin-1-yl)propoxy]-1H,2H,3H-cyclopenta[b]quinolin-9-amine], half-maximal inhibition (IC50) was put at 0.0372 µM.

`COc1cc2c(NCCCOC(C)C)c3c(nc2cc1OCCCN1CCCC1)CCC3` [Example 17, 7-methoxy-N-[3-(propan-2-yloxy)propyl]-6-[3-(pyrrolidin-1-yl)propoxy]-1H,2H,3H-cyclopenta[b]quinolin-9-amine] gave an IC50 of 0.0195 µM.

`COc1cc2c(NC[C@H]3CCCO3)c3c(nc2cc1OCCCN1CCCC1)CCC3` [Example 18, 7-methoxy-N-{[(2R)-oxolan-2-yl]methyl}-6-[3-(pyrrolidin-1-yl)propoxy]-1H,2H,3H-cyclopenta[b]quinolin-9-amine] showed a 50% inhibitory concentration (IC50) of 0.0219 µM.

As to `CNc1c2c(nc3cc(OCCCN4CCCC4)c(OC)cc13)CCCCC2` [Example 19, 2-methoxy-N-methyl-3-[3-(pyrrolidin-1-yl)propoxy]-6H,7H,8H,9H,10H-cyclohepta[b]quinolin-11-amine], it took 0.00794 µM to reach half-maximal inhibition (IC50).

The compound `CNc1c2c(nc3cc(OCCCN4CCCC4)c(OC)cc13)CCC2(C)C` [Example 20, 7-methoxy-N,1,1-trimethyl-6-[3-(pyrrolidin-1-yl)propoxy]-1H,2H,3H-cyclopenta[b]quinolin-9-amine] had an IC50 of 0.0724 µM.

`CCNc1c2c(nc3cc(OCCCN4CCCC4)c(OC)cc13)CCC2(C)C` [Example 21, N-ethyl-7-methoxy-1,1-dimethyl-6-[3-(pyrrolidin-1-yl)propoxy]-1H,2H,3H-cyclopenta[b]quinolin-9-amine]: the midpoint of inhibition, the IC50, lay at 0.0832 µM.

Compound `COc1cc2c(NC(C)C)c3c(nc2cc1OCCCN1CCCC1)CCC3(C)C` [Example 22, 7-methoxy-1,1-dimethyl-N-(propan-2-yl)-6-[3-(pyrrolidin-1-yl)propoxy]-1H,2H,3H-cyclopenta[b]quinolin-9-amine] had a half-maximal inhibitory concentration (IC50) of 0.174 µM.

As for `COCCNc1c2c(nc3cc(OCCCN4CCCC4)c(OC)cc13)CCC2(C)C` [Example 23, 7-methoxy-N-(2-methoxyethyl)-1,1-dimethyl-6-[3-(pyrrolidin-1-yl)propoxy]-1H,2H,3H-cyclopenta[b]quinolin-9-amine], it took 0.468 µM to reach half-maximal inhibition (IC50).

As to `CNc1c2c(nc3cc(OCCCN4CCCC4)c(OC)cc13)CC(C)(C)C2` [Example 24, 7-methoxy-N,2,2-trimethyl-6-[3-(pyrrolidin-1-yl)propoxy]-1H,2H,3H-cyclopenta[b]quinolin-9-amine], the IC50 was 0.024 µM.

The compound `COc1cc2c(NC[C@@H]3CCCO3)c3c(nc2cc1OCCCN1CCCC1)CCC3` [Example 25, 7-methoxy-N-{[(2S)-oxolan-2-yl]methyl}-6-[3-(pyrrolidin-1-yl)propoxy]-1H,2H,3H-cyclopenta[b]quinolin-9-amine] showed a half-inhibitory concentration (IC50) of 0.0155 µM.

With `COc1cc2c(NC[C@@H]3COCCO3)c3c(nc2cc1OCCCN1CCCC1)CCC3` [Example 26, N-{[(2R)-1,4-dioxan-2-yl]methyl}-7-methoxy-6-[3-(pyrrolidin-1-yl)propoxy]-1H,2H,3H-cyclopenta[b]quinolin-9-amine], inhibition was half-maximal at 0.0112 µM (IC50).

For the compound `COc1cc2c(NC[C@H]3COCCO3)c3c(nc2cc1OCCCN1CCCC1)CCC3` [Example 27, N-{[(2S)-1,4-dioxan-2-yl]methyl}-7-methoxy-6-[3-(pyrrolidin-1-yl)propoxy]-1H,2H,3H-cyclopenta[b]quinolin-9-amine], inhibition was half-maximal at 0.0126 µM (IC50).

For `COc1cc2c(NC[C@H]3CCOC3)c3c(nc2cc1OCCCN1CCCC1)CCC3` [Example 28, 7-methoxy-N-{[(3R)-oxolan-3-yl]methyl}-6-[3-(pyrrolidin-1-yl)propoxy]-1H,2H,3H-cyclopenta[b]quinolin-9-amine], half-maximal inhibition (IC50) required 0.01 µM.
